Assay results: patent publication US11939298B1, “5-(4,5-bis(4-bromophenyl)-2-(4-chlorophenyl)-1H-imidazol-1-yl)pentanoic acid as an antimicrobial compound” (KING FAISAL UNIVERSITY, priority 2023, dated 2024)

Legend:
Format in all cases: cell-based
[1] = tested on: Staphylococcus aureus; experiment: Agar plate disc-diffusion, antibacterial, Staphylococcus aureus; conditions: nutrient agar, 37° C., 48 hours, DMSO zone subtracted; for inhibition zone, Staphylococcus aureus, A: A = concentration of comp. = 10,000 μL
Procedure: (§1) The agar plate disc-diffusion method was applied. […] The discs were then placed onto the surface of agar plates (nutrient agar for bacteria and Sabouraud's dextrose agar for fungi) seeded with the test organism. Each plate contained 15 mL of the agar medium, previously seeded with 0.2 mL of the broth culture of each organism pregrown for 18 hours. The plates were incubated at 37° C. for 48 hours, and 72 hours for fungi. The inhibition zones was measured in mm. Discs impregnated with DMSO were used as a control, and its inhibition zone was subtracted from the tested compound actual inhibition zone.
(§2) Their antibacterial screened against gram positive bacteria namely Bacillus cereus and Staphylococcus aureus and gram-negative bacterial strains namely Pseudomonas aeruginosa and Escherichia coli, while their antifungal activity screened against Aspergillus flavus and Chrysosporium keratinophilum as shown in tables 1 and 2 using ciprofloxacin as a reference.

[2] = tested on: Aspergillus flavus; experiment: Agar plate disc-diffusion, antifungal, Aspergillus flavus; conditions: Sabouraud's dextrose agar, 37° C., 72 hours, DMSO zone subtracted; for inhibition zone, Aspergillus flavus, B: B = concentration of comp. = 30,000 μL
Procedure: as §1, §2

[3] = tested on: Pseudomonas aeruginosa; experiment: Agar plate disc-diffusion, antibacterial, Pseudomonas aeruginosa; conditions: nutrient agar, 37° C., 48 hours, DMSO zone subtracted
Procedure: as §1, §2

[4] = tested on: Chrysosporium keratinophilum; experiment: Agar plate disc-diffusion, antifungal, Chrysosporium keratinophilum; conditions: Sabouraud's dextrose agar, 37° C., 72 hours, DMSO zone subtracted
Procedure: The agar plate disc-diffusion method was applied. Sterilized filter papers (6 mm in diameter) were wetted with 10 μL of a solution of 5-(4,5-bis(4-bromophenyl)-2-(4-chlorophenyl)-1H-imidazol-1-yl)pentanoic acid (V) to be tested, containing 10 mg/mL in DMSO, and the discs were allowed to air dry. The discs were then placed onto the surface of agar plates (nutrient agar for bacteria and Sabouraud's dextrose agar for fungi) seeded with the test organism. Each plate contained 15 mL of the agar medium, previously seeded with 0.2 mL of the broth culture of each organism pregrown for 18 hours. The plates were incubated at 37° C. for 48 hours, and 72 hours for fungi. The inhibition zones was measured in mm. Discs impregnated with DMSO were used as a control, and its inhibition zone was subtracted from the tested compound actual inhibition zone.
as §2

[5] = tested on: Escherichia coli; experiment: Agar plate disc-diffusion, antibacterial, Escherichia coli; conditions: nutrient agar, 37° C., 48 hours, DMSO zone subtracted
Procedure: as §1, §2

[6] = tested on: Bacillus cereus; experiment: Agar plate disc-diffusion, antibacterial, Bacillus cereus; conditions: nutrient agar, 37° C., 48 hours, DMSO zone subtracted
Procedure: as §1, §2

[7] = B = concentration of comp. = 30,000 μL
[8] = C = concentration of comp. = 50,000 μL
[9] = A = concentration of comp. = 10,000 μL

SMILES	inhibition zone, Staphylococcus aureus, A [1]	inhibition zone, Aspergillus flavus, B [2]	inhibition zone, Staphylococcus aureus, B [1, 7]	inhibition zone, Staphylococcus aureus, C [1, 8]	inhibition zone, Pseudomonas aeruginosa, A ([3]; A = concentration of comp. = 10 mg/mL)	inhibition zone, Pseudomonas aeruginosa, B [3, 7]	inhibition zone, Pseudomonas aeruginosa, C [3, 8]	inhibition zone, Chrysosporium keratinophilum, A [4, 9]	inhibition zone, Chrysosporium keratinophilum, B [4, 7]	inhibition zone, Chrysosporium keratinophilum, C [4, 8]	inhibition zone, Aspergillus flavus, A ([2]; A = concentration of comp. = 10,000 μg/mL)	inhibition zone, Aspergillus flavus, C [2, 8]	inhibition zone, Escherichia coli, A [5, 9]	inhibition zone, Escherichia coli, B [5, 7]	inhibition zone, Escherichia coli, C [5, 8]	inhibition zone, Bacillus Cereus, A [6, 9]	inhibition zone, Bacillus Cereus, B [6, 7]	inhibition zone, Bacillus Cereus, C [6, 8]
O=C(O)c1cn(C2CC2)c2cc(N3CCNCC3)c(F)cc2c1=O [Cip., ciprofloxacin, reference compound]	42 mm	32 mm																
O=C(O)CCCCn1c(-c2ccc(Cl)cc2)nc(-c2ccc(Br)cc2)c1-c1ccc(Br)cc1 [V, 5-(4,5-bis(4-bromophenyl)-2-(4-chlorophenyl)-1H-imidazol-1-yl)pentanoic acid]	16 mm	23 mm	21 mm	29 mm	24 mm	30 mm	44 mm	26 mm	27 mm	44 mm	18 mm	31 mm	28 mm	36 mm	51 mm	24 mm	26 mm	38 mm
